In brackets after ≈: the same amount, converted by molar mass. Activity calls are given as the source filed them. No cut-off for these calls is given here.
Tests used:
SMMC-7721 [1] = test: Induction of apoptosis in human SMMC-7721 cells assessed as viable cells at 5 uM incubated for 24 hrs by Annexin V-FITC and propidium iodide staining based flow cytometric analysis (reference value: 99 %); format: functional; settings: read-out: Activity
SW-620 = test: Antiproliferative activity against human SW620 cells assessed as inhibition of cell growth incubated for 48 hrs by CCK-8 reagent based spectrophotometric analysis; format: functional; settings: SW-620, 48 h
SMMC-7721 [2] = test: Induction of apoptosis in human SMMC-7721 cells assessed as viable cells at 10 uM incubated for 24 hrs by Annexin V-FITC and propidium iodide staining based flow cytometric analysis (reference value: 99 %); format: functional; settings: read-out: Activity
SMMC-7721 [3] = test: Induction of apoptosis in human SMMC-7721 cells at 10 uM incubated for 24 hrs by Annexin V-FITC and propidium iodide staining based flow cytometric analysis relative to control; format: functional
SMMC-7721 [4] = test: Antitumor activity against human GFP-stained SMMC-7721 cells inoculated in zebrafish larvae assessed as reduction in tumor growth by measuring survival rate at 10 uM incubated for 48 hrs by confocal laser scanning microscopy; format: functional
SMMC-7721 [5] = test: Antitumor activity against human GFP-stained SMMC-7721 cells inoculated in zebrafish larvae assessed as reduction in tumor growth at < 10 uM incubated for 48 hrs by confocal laser scanning microscopy; format: functional, cell-based
A549 = test: Antiproliferative activity against human A549 cells assessed as inhibition of cell growth incubated for 48 hrs by CCK-8 reagent based spectrophotometric analysis; format: functional; settings: A549, 48 h
MCF7 = test: Antiproliferative activity against human MCF7 cells assessed as inhibition of cell growth incubated for 48 hrs by CCK-8 reagent based spectrophotometric analysis; format: functional; settings: MCF7, 48 h
SMMC-7721 [6] = test: Induction of apoptosis in human SMMC-7721 cells assessed as late apoptotic cells at 15 uM incubated for 24 hrs in presence of 3-MA by Annexin V-FITC and propidium iodide staining based flow cytometric analysis (reference value: 0.09 %); format: functional
SMMC-7721 [7] = test: Induction of apoptosis in human SMMC-7721 cells at 20 uM incubated for 24 hrs by Annexin V-FITC and propidium iodide staining based flow cytometric analysis relative to control; format: functional
SMMC-7721 [8] = test: Induction of apoptosis in human SMMC-7721 cells assessed as viable cells at 15 uM incubated for 24 hrs in presence of zVAD by Annexin V-FITC and propidium iodide staining based flow cytometric analysis (reference value: 99.2 %); format: functional; settings: read-out: Activity
SMMC-7721 [9] = test: Induction of autophagy in human SMMC-7721 cells assessed as cell structure destruction at 10 uM incubated for 24 hrs by TEM analysis; format: functional, cell-based
SMMC-7721 [10] = test: Induction of autophagy in human SMMC-7721 cells assessed as formation of autolysosomes at 10 uM incubated for 24 hrs by TEM analysis; format: functional, cell-based
SMMC-7721 [11] = test: Induction of apoptosis in human SMMC-7721 cells assessed as necrotic cells at 5 uM incubated for 24 hrs by Annexin V-FITC and propidium iodide staining based flow cytometric analysis (reference value: 0.61 %); format: functional
[12] = Toxicity in Zebrafish embryo assessed as reduction in survival rate at >= 30 uM incubated for 48 hrs by microscopic analysis relative to control; set-up: species or system Danio rerio; settings: zebrafish embryos
SMMC-7721 [13] = test: Antitumor activity against human GFP-stained SMMC-7721 cells inoculated in zebrafish larvae assessed as reduction in tumor growth at 5 to 20 uM incubated for 48 hrs by confocal laser scanning microscopy; format: functional, cell-based; settings: dose 5-20 µM
SMMC-7721 [14] = test: Induction of apoptosis in human SMMC-7721 cells assessed as upregulation of Bax expression incubated for 24 hrs by Western blotting analysis; format: functional, cell-based
[15] = Aqueous solubility of the compound in […] by HPLC analysis; format: physicochemical
SMMC-7721 [16] = test: Antitumor activity against human SMMC-7721 cells xenografted in BALB/c mouse assessed as reduction in tumor weight at 10 mg/kg,ip administrated for 3 weeks; format: functional, organism-based
SMMC-7721 [17] = test: Induction of apoptosis in human SMMC-7721 cells assessed as downregulation of BCL-2 expression at 15 uM incubated for 24 hrs by Western blotting analysis; format: functional, cell-based
[18] = Inhibition of PI3K/AKT/mTOR signalling pathway in human SMMC-7721 cells at 10 uM incubated for 24 hrs by transcriptome analysis; format: cell-based
SMMC-7721 [19] = test: Induction of apoptosis in human SMMC-7721 cells assessed as upregulation of LC3 expression incubated for 24 hrs by Western blotting analysis; format: functional, cell-based
SMMC-7721 [20] = test: Antitumor activity against human SMMC-7721 cells xenografted in BALB/c mouse assessed as reduction in tumor growth at 10 mg/kg,ip administrated for 3 weeks; format: functional, organism-based
SMMC-7721 [21] = test: Induction of apoptosis in human SMMC-7721 cells assessed as upregulation of Bax/Bcl-2 ratio incubated for 24 hrs by Western blotting analysis; format: functional, cell-based
SMMC-7721 [22] = test: Antitumor activity against human SMMC-7721 cells xenografted in BALB/c mouse assessed as reduction in tumor weight at 10 mg/kg,ip administrated daily for 3 weeks (reference value: 0.573 +/- 0.137 g); format: functional
[23] = Toxicity in BALB/c mouse xenografted with human SMMC-7721 cells assessed as change in body weight at 10 mg/kg,ip administrated daily for 3 weeks; format: organism-based; settings: in vivo, 504 h
SMMC-7721 [24] = test: Antitumor activity against human SMMC-7721 cells xenografted in BALB/c mouse assessed as inhibition of tumor growth at 10 mg/kg,ip administrated daily for 3 weeks relative to control; format: functional; set-up: scale not given: the % may be the effect or the level left
SMMC-7721 [25] = test: Induction of apoptosis in human SMMC-7721 cells assessed as upregulation of Bax/Bcl-2 ratio at 20 uM incubated for 24 hrs by Western blotting analysis; format: functional, cell-based

Structure (SMILES): C=C(C)[C@@H]1CC[C@]2(C(=O)OC)CC[C@]3(C)[C@H](CC[C@@H]4[C@@]5(C)C[C@@H](Cc6cn([C@]7(CO)O[C@@H](n8ccc(O)nc8=O)[C@@H](F)[C@@H]7O)nn6)C(=O)C(C)(C)[C@@H]5CC[C@]43C)[C@@H]12
- viability at 5 µM (SMMC-7721 [1]): 99%
- IC50 (SW-620): 10.9 µM
- viability at 10 µM (SMMC-7721 [2]): 96.2%
- Activity (SMMC-7721 [3]): 0.42%
- Activity (SMMC-7721 [4]): 85%
- Activity (SMMC-7721 [5]): inactive
- IC50 (A549): 17.7 µM
- IC50 (MCF7): 18.6 µM
- Activity (SMMC-7721 [6]): 2.54%
- Activity (SMMC-7721 [7]): 0.42%
- viability at 15 µM (SMMC-7721 [8]): 82%
- Activity (SMMC-7721 [9]): Active
- Activity (SMMC-7721 [10]): Active
- Activity (SMMC-7721 [11]): 0.69%
- survival at 48 h, 30 µM [12]: < 25%

Structure (SMILES): C=C(C)[C@@H]1CC[C@]2(C(=O)OC)CC[C@]3(C)[C@H](CC[C@@H]4[C@@]5(C)C[C@@H](Cc6cn([C@H]7C[C@H](n8cc(C)c(O)nc8=O)O[C@@H]7CO)nn6)C(=O)C(C)(C)[C@@H]5CC[C@]43C)[C@@H]12
- viability at 5 µM (SMMC-7721 [1]): 98.4%
- IC50 (SW-620): 4.61 µM
- viability at 10 µM (SMMC-7721 [2]): 91.7%
- Activity (SMMC-7721 [3]): 0.54%
- Activity (SMMC-7721 [13]): Active
- Activity (SMMC-7721 [14]): Dose-Dependent Effect
- solubility [15]: 2.56 µM (≈ 1.98 µg/mL)
- IC50 (A549): 11.9 µM
- Activity (SMMC-7721 [16]): Active
- Activity (SMMC-7721 [17]): Active
- inhibition [18]: Active
- Activity (SMMC-7721 [19]): Dose-Dependent Effect
- IC50 (MCF7): 9.78 µM
- Activity (SMMC-7721 [6]): 6.4%
- Activity (SMMC-7721 [20]): Active
- Activity (SMMC-7721 [7]): 0.54%
- Activity (SMMC-7721 [21]): Dose-Dependent Effect
- Activity (SMMC-7721 [22]): 0.275 g
- viability at 15 µM (SMMC-7721 [8]): 87.9%
- Activity (SMMC-7721 [9]): Active
- Activity [23]: Non-Toxic
- Activity (SMMC-7721 [10]): Active
- Activity (SMMC-7721 [24]): 52%
- Activity (SMMC-7721 [11]): 0.56%
- Activity (SMMC-7721 [25]): Active
